Results taken from patent publication US5948785A, “Heterocyclic amide compounds and pharmaceutical use of the same” (The Green Cross Corporation, priority 1995, dated 1999).

These compounds were tested against T1, human heart chymase (Homo sapiens, UniProt P23946) (assay: Inhibitory activity on amidase activity of human heart chymase). Settings: 5 nM chymase; succinyl-alanyl-alanyl-prolyl-phenylalanine-p-nitroanilide 2.5 mM; pH 9.0; Easson-Stedman plot; read-out: K^i (human heart chymase inhibitory activity).
T1 sequence (P23946 22-247): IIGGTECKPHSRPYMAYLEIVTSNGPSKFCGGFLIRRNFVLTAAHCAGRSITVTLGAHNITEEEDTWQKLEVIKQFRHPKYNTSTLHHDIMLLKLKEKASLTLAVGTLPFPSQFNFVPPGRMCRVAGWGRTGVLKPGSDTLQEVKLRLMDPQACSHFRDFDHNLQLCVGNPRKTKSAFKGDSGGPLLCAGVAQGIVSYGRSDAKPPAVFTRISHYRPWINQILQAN
Assay type: biochemical
Method: The effectiveness of the inhibitory activity of compound (I) of the present invention was evaluated based on the inhibitory activity on amidase activity of human heart chymase, which was determined as in the following.
The inhibitory activity was quantitatively determined through variation in fractional residual activity of the enzyme caused by the inventive compound in defined serial concentration (<×1, <×10, <×100-fold equivalents) relative to 5 nM chymase in the presence of synthetic substrate, succinyl-alanyl-alanyl-prolyl-phenylalanine-p-nitroanilide (final concentration 2.5 mM). The inhibitory effect was analyzed by least square regression of Easson-Stedman plot (Proc. Roy. Soc. B. 1936, 121, p. 141) utilizing bimolecular equilibrium reaction linearization formula. The inhibitory activity was evaluated by the apparent inhibitory constant (Kiapp) obtained by this analysis and inhibitory constant (Ki) calculated from final substrate concentration in the reaction mixture and Km values separately determined. The quantitative determination of initial rate of the enzyme reaction was spectrophotometrically detected in terms of an increased amount of p-nitroaniline at 405 nm produced by hydrolysis of the substrate. The chymase inhibitory activity of the compound of the present invention was calculated as ratio of residual activity in the presence of inhibitor relative to enzyme activity in the absence of inhibitor, and incorporation of the determination values was completed at a level less than initial rate guarantee absorbance at a concentration of the substrate used for the enzyme, after which analysis was performed.
The reaction mixture consisted of an Na2 B4 O7 (100 mM)-KH2 PO4 (50 mM) buffer (pH 9.0, 120 μl) containing 0.1% Triton-X100, the inventive compound dissolved in 20 μl of 10% dimethyl sulfoxide (DMSO), 10% bovine serum albumin dissolved in 20 μl of the same buffer, substrate dissolved in 20 μl of DMSO, and 20 μl of chymase, thus amounting to 200 μl in total.
Starting with the absorbance immediately after addition of the enzyme, increases in absorbance were recorded as a progressive curve taken precisely at equal time intervals.
From the above data, the difference between absorbances at completion of the reaction and immediately after addition was used to quantitatively determine the residual activity of the sample added with the inhibitor relative to a control wherein the inhibitor was not added. Alternatively, reaction rates of the control and the sample added with the inhibitor were calculated for certain time period (≥20 min) with successive shift (every 10 to 30 minutes) of the period, and the residual activity ratio was quantitatively determined and analyzed from the respective reaction rates averaged through the entire reaction time.

SMILES | Ki [µM]
Nc1cnc(-c2ccccc2)n(CC(=O)NC(Cc2ccccc2)C(=O)C(F)(F)F)c1=O (stereo not drawn) [Example 2, 2-(5-amino-6-oxo-2-phenyl-1,6-dihydro-1-pyrimidyl)-N-(1-benzyl-3,3,3-trifluoro-2-oxopropyl)acetamide] | 7.2
O=C(Cn1c(-c2ccc(F)cc2)ncc(NC(=O)OCc2ccccc2)c1=O)NC(Cc1ccccc1)C(=O)C(F)(F)F (stereo not drawn) [Example 3, 2-[5-benzyloxycarbonylamino-2-(4-fluorophenyl)-6-oxo-1,6-dihydro-1-pyrimidyl]-N-(1-benzyl-3,3,3-trifluoro-2-oxopropyl)acetamide] | 5.6
Nc1cnc(-c2ccc(F)cc2)n(CC(=O)NC(Cc2ccccc2)C(=O)C(F)(F)F)c1=O (stereo not drawn) [Example 4, 2-[5-amino-2-(4-fluorophenyl)-6-oxo-1,6-dihydro-1-pyrimidyl]-N-(1-benzyl-3,3,3-trifluoro-2-oxopropyl)acetamide] | 4.1
Cc1ccc(-c2ncc(NC(=O)OCc3ccccc3)c(=O)n2CC(=O)NC(Cc2ccccc2)C(=O)C(F)(F)F)cc1 (stereo not drawn) [Example 5, 2-[5-benzyloxycarbonylamino-6-oxo-2-(p-tolyl)-1,6-dihydro-1-pyrimidyl]-N-(1-benzyl-3,3,3-trifluoro-2-oxopropyl)-acetamide] | 8.7
Cc1ccc(-c2ncc(N)c(=O)n2CC(=O)NC(Cc2ccccc2)C(=O)C(F)(F)F)cc1 (stereo not drawn) [Example 6, 2-[5-amino-6-oxo-2-(p-tolyl)-1,6-dihydro-1-pyrimidyl]-N-(1-benzyl-3,3,3-trifluoro-2-oxopropyl)acetamide] | 7
Cc1cccc(-c2ncc(NC(=O)OCc3ccccc3)c(=O)n2CC(=O)NC(Cc2ccccc2)C(=O)C(F)(F)F)c1 (stereo not drawn) [Example 7, 2-[5-benzyloxycarbonylamino-6-oxo-2-(m-tolyl)-1,6-dihydro-1-pyrimidyl]-N-(1-benzyl-3,3,3-trifluoro-2-oxopropyl)-acetamide] | 4.8
